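Briefly, cells in 96-well plates were exposed to five compound concentrations for 48 h, and endpoints were estimated by linear interpolation. Definition used: TGI = concentration required for complete inhibition of growth.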
Assays:
Assay in all cases: NCI anticancer screen, dose series, 48 h
786-0 renal = test system: 786-0 renal
A549 NSCLC = test system: A549 NSCLC
ACHN renal = test system: ACHN renal
HCC-2998 colon = test system: HCC-2998 colon
HCT-15 colon = test system: HCT-15 colon
HL-60(TB) leukemia = test system: HL-60(TB) leukemia
HS 578T breast = test system: HS 578T breast
HT29 colon = test system: HT29 colon
IGROV1 ovarian = test system: IGROV1 ovarian
KM12 colon = test system: KM12 colon
MALME-3M melanoma = test system: MALME-3M melanoma
MDA-N = test system: MDA-N
OVCAR-5 ovarian = test system: OVCAR-5 ovarian
OVCAR-8 ovarian = test system: OVCAR-8 ovarian
RXF 393 renal = test system: RXF 393 renal
SF-295 CNS = test system: SF-295 CNS
SK-MEL-5 melanoma = test system: SK-MEL-5 melanoma
SK-OV-3 ovarian = test system: SK-OV-3 ovarian
UACC-257 melanoma = test system: UACC-257 melanoma
UACC-62 melanoma = test system: UACC-62 melanoma

| SMILES | TGI (786-0 renal) | TGI (A549 NSCLC) | TGI (ACHN renal) | TGI (HCC-2998 colon) | TGI (HCT-15 colon) | TGI (HL-60(TB) leukemia) | TGI (HS 578T breast) | TGI (HT29 colon) | TGI (IGROV1 ovarian) | TGI (KM12 colon) | TGI (MALME-3M melanoma) | TGI (MDA-N) | TGI (OVCAR-5 ovarian) | TGI (OVCAR-8 ovarian) | TGI (RXF 393 renal) | TGI (SF-295 CNS) | TGI (SK-MEL-5 melanoma) | TGI (SK-OV-3 ovarian) | TGI (UACC-257 melanoma) | TGI (UACC-62 melanoma) |
| --- | --- | --- | --- | --- | --- | --- | --- | --- | --- | --- | --- | --- | --- | --- | --- | --- | --- | --- | --- | --- |
| COc1ccc2c(c1)/C(=C\c1c(Cl)[nH]c3cc(C)c(OC)cc13)C(=O)N2 | 13 µM | 18.2 µM | 17.3 µM | 6.19 µM | 5.96 µM | 2.46 µM | > 50.7 µM | 7.27 µM | 5.3 µM | 5.06 µM | 19.2 µM | 2.13 µM | 14.1 µM | 8.22 µM | 7.67 µM | 13.4 µM | 8.7 µM | 3.07 µM | 20.6 µM | 15.9 µM |
| CC[C@@H](C)[C@H](NC(=O)[C@H](Cc1ccccc1)NCC(F)(F)F)C(=O)OC(C)(C)C | > 100 µM | > 100 µM | > 100 µM | > 100 µM | > 100 µM | > 100 µM | > 100 µM | > 100 µM | > 100 µM | > 100 µM | > 100 µM | > 100 µM | > 100 µM | > 100 µM | > 100 µM | > 100 µM | > 100 µM | > 100 µM | > 100 µM | > 100 µM |
| CCOC(=O)/C=C(\C(=O)OCC)n1cc(C)c(=O)n(Cc2cn(CCCCOC(C)=O)nn2)c1=O | 16.5 µM | 36.1 µM | 11.1 µM | 34 µM | > 44.2 µM | 7.32 µM | 42.3 µM | 21.1 µM | 27.5 µM | 33.3 µM | 4.16 µM | 50.9 µM | 27.1 µM | 21.2 µM | 7.5 µM | 35.5 µM | > 53.1 µM | > 70.7 µM | 30.5 µM | 29.9 µM |
| CCOC(=O)c1ccc(N=C/C=C(\Nc2ccc(C(=O)OCC)cc2)C23CC4CC(CC(C4)C2)C3)cc1 | > 100 µM | > 100 µM | > 100 µM | > 100 µM | > 100 µM | > 100 µM | > 100 µM | > 100 µM | > 100 µM | > 100 µM | > 100 µM | > 100 µM | > 100 µM | > 100 µM | > 100 µM | > 100 µM | > 100 µM | > 100 µM | > 100 µM | > 100 µM |
| C=CCn1c(N)c(C#N)c(C#N)c1CCC | > 100 µM | > 100 µM | > 100 µM | > 100 µM | > 100 µM | > 100 µM | > 100 µM | > 100 µM | > 100 µM | > 100 µM | > 100 µM | > 100 µM | > 100 µM | > 100 µM | > 100 µM | > 100 µM | > 100 µM | > 100 µM | > 100 µM | > 100 µM |

Source: PubChem BioAssay (NCI)
